Results reported in patent publication US8372408B2, “Use of Phaeodactylum algae extract for depigmenting the skin” (LVMH Recherche, priority 2007, dated 2013).
Residues, ends and D or L forms follow the SMILES beside them. *: point of attachment. Cbz = O=C(OCc1ccccc1)*

Assays:
[1] = target: T1, proteasome (chymotrypsin-like activity) of MNT1 cells (Homo sapiens, UniProt P28074); assay: Proteasome LLVY (chymotrypsin-like) activity assay on lyzates of treated MNT1 cells; type: cell-based; conditions: for Proteasome activity at 72 hours, Chymotrypsin-like: MNT1 cells lyzed 72 hours after treatment, palmitic or linoleic acid 25 μM, Phaeodactylum 5 μg/ml, Mg132 120 nM where stated; for chymotrypsin-like peptidase activity of the proteasome, change in words: 72 hours after addition, MNT-1 melanocytes, FIG. 1A
T1 construct: introduce in duplicate a fixed volume of cell lyzate; endogenous in cells; host or cells: MNT1 human melanocyte line (lysate)
T1 sequence (P28074 60-263): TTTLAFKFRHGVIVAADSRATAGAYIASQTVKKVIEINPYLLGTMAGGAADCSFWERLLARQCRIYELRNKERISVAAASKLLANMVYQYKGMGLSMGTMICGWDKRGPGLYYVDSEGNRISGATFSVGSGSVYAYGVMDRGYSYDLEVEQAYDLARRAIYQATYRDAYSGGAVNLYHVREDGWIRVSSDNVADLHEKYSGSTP
Method: 2.1 Treatment of MNT1 Cells (Human Melanocyte Cell Lines) in Order to Assay the Proteasome and Tyrosinase Activities MNT1, 10^6 cells/dish 35 mm in diameter, in triplicate
Treatment on D1 • Linoleic acid 25 μM • Palmitic acid 25 μM • Phaeodactylum 5 μg/ml +1% BSA+Vitamin E 50 μM+Vitamin C 1 mM • Linoleic acid 25 μM • Palmitic acid 25 μM • Phaeodactylum 5 μg/ml Stirring with a magnetic bar at 37° C. for 1 hour • 2nd treatment on D4 +Cycloheximide 1 μg/ml (protein synthesis inhibitor)
+120 nM Mg132 for the assay of the tyrosinase activity. • Preparation of the lyzates after 4 hours 2 rinses with PBS (phosphate-buffered saline)
On a bed of ice; recovery in 150 μl of lysis buffer by scraping.
Freezing at […]. • Protein assay via the Bradford method • Proteasome activity assay The cells are rinsed twice with PBS and each peptidase activity of the proteasome is then determined by using a fluorogenic peptide substrate specific for each of the activities, in the presence and in the absence of a specific proteasome inhibitor, MG 132 (Leu-Leu-Leucinal). The peptide substrate products are the following: Leu-Leu-Val-Tyr-amc (LLVY-amc) for the chymotrypsin-like activity, Leu-Leu-Glu-na (LLE-na) for the post-glutamic hydrolase activity and Leu-Ser-Thr-Arg-amc (LSTR-amc) for the trypsin-like activity. The principle of the assay consists in monitoring over time the increase in fluorescence due to the release of the fluorophores aminomethylcoumarin or β-naphthylamine from the fluorogenic peptides. […]
a) LLVY activity (chymotrypsin-like) a.1—Principle • Proteasome (LLVY activity • (chymotrypsin-like)) N-Succinyl-LLVY-MCA→N-Succinyl-LLVY+MCA fluorescent Reading with a spectrofluorimeter at an excitation wavelength of 350 nm and an emission wavelength of 440 nm.
The process is performed as follows: • Into a 96-well plate, introduce in duplicate a fixed volume of cell lyzate (determined from the lowest protein concentration of the samples, which should correspond to 20 μg of protein) and make up to 100 μl with TRIS buffer. • Add 100 μl of LLVY-MCA substrate prediluted to 25 μM in the TRIS buffer (12.5 μM final). • take the spectrofluorimeter readings at an excitation wavelength of 355 nm and an emission wavelength of 460 nm with a gain of 40, every 2 minutes for 30 minutes.
The raw results are expressed in F.U./minute, F.U. denoting the values supplied by the machine, expressed in fluorescence units.
The assay is performed on 200 μl of reaction volume containing a volume V of cell lyzate set as a function of the protein concentrations of the lyzates.
From the calibration range, the activity may be expressed as follows, in pmol of MCA released/minute/mg of protein: […]
For the assay of the proteasome activities, the cells were lyzed at 72 hours after the cell treatment, and the protein concentration was determined.

[2] = test system: tyrosinase of MNT-1 melanocytes; assay: Measurement of the tyrosinase (dopa-oxidase) activity in lyzates of treated MNT1 cells; type: cell-based, human; conditions: for Tyrosinase activity at 72 hours: dopa-oxidase activity at 475 nm, MNT1 lyzed 72 hours after treatment, palmitic or linoleic acid 25 μM, Phaeodactylum 5 μg/ml, Mg132 120 nM where stated
Method: 2.1D: Measurement of the tyrosinase activity
The assay is based on measuring the dopa-oxidase activity of tyrosinase. The principle of the assay is based on the detection of dopachrome, which absorbs at 475 nm on FLUOstar (BMG)
Materials: • Lysis buffer • Substrate: L-DOPA (Sigma, D-9628, MW 197.2) at 10 mM in PBS, prepared extemporaneously due to the autoxidation of L-Dopa.
Human melanocytes in culture were treated with 25 μM of linoleic acid (±120 nM Mg132) or 25 μM of palmitic acid (±120 nM Mg132) or 5 μg/ml of Phaeodactylum (±120 nM Mg132) in MNT1 medium containing 1% BSA, 50 μM vitamin E and 1 mM vitamin C. The melanocytes were recovered and lyzed 72 hours after treatment. 50 μg of extract are then incubated with 1 mM of […] for one hour at 37° C. Measurement of the tyrosinase activity is performed at 475 nm every 2 minutes using a microplate reader thermostatically maintained at 37° C.
The Dopa-oxidase activity is obtained as OD/min/mg of protein. The blank is prepared with lysis buffer in the presence of L-DOPA.

| Proteasome activity at 72 hours, Chymotrypsin-like [1] | chymotrypsin-like peptidase activity of the proteasome, change in words [1] | Structure (SMILES) | Tyrosinase activity at 72 hours [2] | tyrosinase activity, change in words ([2]; 72 hours after treatment of MNT-1 melanocytes, FIG. 5) |
| --- | --- | --- | --- | --- |
| 3 ± 0.3 pmol/min/mg | – | CC(C)C[C@@H](C=O)NC(=O)[C@H](CC(C)C)NC(=O)[C@H](CC(C)C)NC(=O)OCc1ccccc1 [Control + Mg132, Z-Leu-Leu-Leu-CHO] (Cbz-Leu-Leu-Leu-aldehyde) | 18.35 ± 1.55 OD/min | – |
| 6.3 ± 0.37 pmol/min/mg | increase and do so significantly | CCCCC/C=C\C/C=C\CCCCCCCC(=O)O [Linoleic acid] | 9.65 ± 2 OD/min | significant decrease |
| 3 ± 0.37 pmol/min/mg | reduced | CCCCCCCCCCCCCCCC(=O)O [Palmitic acid] | 18.75 ± 1.9 OD/min | – |
